Data set [1] has as its system hippocampal slice neurons. As to the kind of experiment: long-term potentiation (LTP) of hippocampal slices treated with Aβ after in vivo treatment. Also on record: species or system rat. The conditions noted are these: for neuroprotective activity based on LTP signal, model of Alzheimer disease: administered in vivo to rats prior to extraction of hippocampus, beta-amyloid treatment. The procedure:
FIG. 3B is a graphic representation showing the LTP caused by in vitro addition of Aβ, where the decay of LTP of hippocampal slice neurons characterized by a decrease of pop-spike amplitude (%) in a hippocampal slice treated with Aβ.
SkQR1 Aβ was added 15 min before the LTP induction with high-frequency electric stimulation (arrow). The decay of LTP (i.e. decrease of pop-spike amplitude) in a hippocampal slice treated with Aβ can be prevented by SkQR1 treatment.
FIG. 16 is a bar graph comparing the neuroprotective effects of preferred SkQ mitochondria-targeted antioxidants of the invention when administered in vivo in a model of Alzheimer disease.
As a model of cell memory, an electric response of a hippocampal slice (long-term potentiation, LTP) was used (Malenka, et al., Science 285:1870-1874 (1999)). A direct experiment was performed showing the prevention of Aβ toxicity in hippocampus by in vivo treatment of rats with 1 μmol SkQR1 per kg of body weight. The compound was injected intraperitoneally into the animal 24 hours before hippocampal slices were obtained to measure LTP. Some slices were pretreated with Aβ for 15 minutes. As is seen in FIG. 3B, Aβ impaired LTP relative to untreated control.
FIG. 16 provides a comparison of the neuroprotective effects of SkQ1, SkQR1 and C12TPP based on the LTP signal in neurons of hippocampal slices. Ab stands for beta-amyloid treatment. […] All SkQs and C12TPP were administered in vivo to rats prior the extraction of hippocampus.

Data set [2] concerns mROS. Conditions: in vivo; cited from earlier work.
Data set [3] concerns Wistar rats. In words: damaged focal volume (morphometry) after focal open severe brain trauma. The conditions noted are these: seventh day after trauma; 100 nmol/kg i.p. 1 h after trauma then daily for four days; mean±SEM. Type of data set: in vivo, rat. As to the method: In this study, we, the inventors, employed our modification of the earlier used model of focal open severe brain trauma in rats. The study was performed on male Wistar rats with body weight of 180-250 g. Before the surgery, the animals were anesthetized by an intraperitoneal injection of 3% chloral hydrate (330 mg/kg). To create the trauma, the left frontal part of the skull was trepanized above the sensorimotor cortex zone, and a movable Teflon piston 4 mm in diameter with depth of insertion of 2.5 mm was placed into it; this piston was struck from the height of 10 cm with a 50-g load sliding along a directing rail. Localization of the sensorimotor cortex zone was determined based on data described in [14]. […]
A magnetic resonance imaging (MRI) study was performed as described in [15] using a BioSpec 70/30 (Bruker, Germany) with magnetic field induction of 7 T and gradient of 105 mT/m. The damaged focal volume was determined morphometrically on the 7th day after the trauma. […] The volume of the lesion was determined as a cylinder with V=ΣSn×d, where d is thickness of the section pair (200 μm); Sn is the area of the lesion in the section in mm2; Σ is the sum of volumes of ischemic damage in the sections using an Image J program (Bethesda Md., USA).
The results are expressed as the mean±standard error of mean. […]

Data set [4] relates to rats after transient middle cerebral artery occlusion. As to the kind of experiment: transient middle cerebral artery occlusion, brain infarct volume (TTC staining). Type of data set: in vivo, rat. Conditions: single intraperitoneal injection 0.5-2 μmol/kg body weight; 24 h before 60 min occlusion; studied 24 h after occlusion. As to the method: Several effects of SkQs were observed when brain functions were studied. Where indicated, 1 μmol SkQR1 per kg of body weight was injected intraperitoneally 24 h before the 60 min occlusion of the artery. The ischemia effect was studied 24 h after the occlusion (Plotnikov, et al., Biochemistry (Mosc) 75:145-150 (2010) here and below, p<0.05 for SkQ effect).

Data set [5] deals with Wistar rats. In words: limb-placing test after focal open severe brain trauma. Format: in vivo, rat. The conditions noted are these: 100 nmol/kg i.p. 1 h after trauma then daily for four days, 12-score scale, mean±SEM. As to the method: In this study, we, the inventors, employed our modification of the earlier used model of focal open severe brain trauma in rats. The study was performed on male Wistar rats with body weight of 180-250 g. Before the surgery, the animals were anesthetized by an intraperitoneal injection of 3% chloral hydrate (330 mg/kg). To create the trauma, the left frontal part of the skull was trepanized above the sensorimotor cortex zone, and a movable Teflon piston 4 mm in diameter with depth of insertion of 2.5 mm was placed into it; this piston was struck from the height of 10 cm with a 50-g load sliding along a directing rail. Localization of the sensorimotor cortex zone was determined based on data described in [14].
SkQR1 (100 nmol/kg) was injected intraperitoneally 1 h after the trauma and then daily in the same dose during the following four days.
Behavioral “limb-placing test” was performed 24 h before the operation and then on the third and seventh days after the trauma. […] The resulting score on this scale is determined as the sum of points obtained in six tests assessing the response of the forelimbs and hindlimbs to tactile and proprioceptive stimulation in the presence of obvious reflexes. […]
The results are expressed as the mean±standard error of mean. […] The statistical significance of differences in the damaged volumes was assessed using Student's t-test at the significance level of p<0.05.

The test system of data set [6] is hippocampal slice neurons. As to the kind of experiment: LTP of hippocampal slices, nootropic activity. The conditions noted are these: administered in vivo; FIG. 15. The text has this: FIG. 15 is a bar graph showing the nootropic activity of preferred SkQ mitochondria-targeted antioxidants of the invention when administered to animals in vivo.
Data set [7] deals with rats after transient middle cerebral artery occlusion. As to the kind of experiment: limb-placing test after transient middle cerebral artery occlusion. Format: in vivo, rat. The conditions noted are these: after injection of SkQR1; first day after induction of ischemia. The procedure:
Behavioral tests were performed 1 day before the induction of ischemia and on the first day after the induction of ischemia. The limb-placing test was used to evaluate the neurological deficit estimated by a conventional 14-point scale with modifications as described in Jolkkonen, et al., Eur. J. Pharmacol., 400:211-219 (2000)). The test had 7 limb-placing tasks that assess the sensorimotor integration of forelimb and hindlimb responses to tactile and proprioceptive stimulation.

For data set [8], the system named is AD patients. The conditions noted are these: human, in vivo; cited from earlier work.

On to `CCCCCCCCCCCC[P+](c1ccccc1)(c1ccccc1)c1ccccc1` [C12TPP], for which, in data set [1] (FIG. 16), the “neuroprotective activity compared to SkQ” value was “lower but still sufficient” and the “neuroprotective activity based on LTP signal, model of Alzheimer disease” value is “neuroprotective activity”.
For the compound `COC1=C(OC)C(=O)C(CCCCCCCCCC[P+](c2ccccc2)(c2ccccc2)c2ccccc2)=C(C)C1=O` [MitoQ], the “outcome of targeting the antioxidant to quench mROS” value in data set [2] is given as “failed”.
In the case of `CC/N=c1/cc2oc3cc(NCC)c(C)cc3c(-c3ccccc3C(=O)OCCCCCCCCCCC3=CC(=O)C(C)=C(C)C3=O)c-2cc1C` [SkQR1, plastoquinonyl decylrhodamine 19], in data set [3], the damaged volume turned out to be 15±4 mm3. Also, in data set [1] (FIG. 16), the “neuroprotective activity based on LTP signal, model of Alzheimer disease” value is on record as “neuroprotective activity”. For the same compound, the “impairment (decay) of LTP caused by Aβ” value in data set [1] (in vivo treatment (SkQR1 1 μmol/kg i.p. 24 hours before slices), Aβ added to slices for 15 min) is recorded as “prevented such impairment”. Moreover, in data set [4], the “infarct volume in brain” value is on record as “strongly decreased”. Moreover, the results for the “limb-placing test score, right limbs” value in data set [5] (seventh day after trauma) and in data set [5] (third day after trauma) were 7.4±0.8 points and 6.6±0.8 points, respectively. Also, the “LTP signal (nootropic activity)” value in data set [6] was “clearly stimulates LTP”. Besides, the “behavioral defects, limb-placing test” value in data set [7] is “decrease”.
In the case of `O=C1O[C@H]([C@@H](O)CO)C(O)=C1O` [ascorbate], the safety result in data set [8] is “safe”.
For `O=C(O)CCCCC1CCSS1` (stereo not drawn) [α-lipoate], in data set [8], the “efficacy in treating AD patients” value was “ineffective” and the safety result is “safe”.
Take `Cc1c(C)c2c(c(C)c1O)CC[C@@](C)(CCC[C@H](C)CCC[C@H](C)CCCC(C)C)O2` [α-tocopherol]: in data set [8], the “efficacy in treating AD patients” value is “ineffective” and the safety result was “safe”.

(Values after patent publication US20140329776A1, “Mitochondria-Targeted Antioxidants for Treatment of Age-Related Brain Disorders” (MITOTECH S.A., priority 2011, published 2014).)
